Consider 24 molecules from patent publication US9073853B2, “Cycloalkane carboxylic acid derivatives as CXCR3 receptor antagonists” (Sanofi, priority 2011, dated 2015).

Sequence of human CXCR3-A receptor (P49682 whole entry): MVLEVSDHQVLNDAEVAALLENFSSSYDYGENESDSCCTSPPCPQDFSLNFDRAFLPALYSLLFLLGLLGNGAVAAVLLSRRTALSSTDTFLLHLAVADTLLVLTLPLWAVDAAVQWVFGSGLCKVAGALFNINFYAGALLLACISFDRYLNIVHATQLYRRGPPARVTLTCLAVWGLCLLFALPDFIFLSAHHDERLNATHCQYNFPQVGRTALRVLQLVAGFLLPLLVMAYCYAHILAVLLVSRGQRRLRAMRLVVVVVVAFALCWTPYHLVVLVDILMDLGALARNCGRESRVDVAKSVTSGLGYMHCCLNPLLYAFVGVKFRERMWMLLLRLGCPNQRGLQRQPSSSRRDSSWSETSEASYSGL

The target of this assay is human CXCR3-A receptor (Homo sapiens (Human), UniProt P49682). The assay can be described thus: 125I-CXCL10 competition radioligand binding assay. Conditions: displacement of 125I-CXCL10 from membranes of CHO cells expressing human recombinant CXCR3-A. The method in brief:
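Membranes from a recombinant cell line expressing human CXCR3-A (10-20 μg protein) were incubated with 125I-CXCL10 and test compound for 60 min at 25° C, then filtered onto PEI-soaked GF/B filters and gamma-counted. IC50 and Hill slope came from four-parameter nonlinear fitting of competition curves.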
With `COc1cc(CN(C[C@H]2CC[C@H](C(=O)O)CC2)[C@H]2CCc3cc(Cl)ccc32)ccc1SCCN1C(=O)CCC1=O` [Example 88, trans-4-[(((S)-5-Chloro-indan-1-yl)-{4-[2-(2,5-dioxo-pyrrolidin-1-yl)-ethylsulfanyl]-3-methoxy-benzyl}-amino)-methyl]-cyclohexanecarboxylic acid], the IC50 was determined as 23 nM.
As for `CCc1cc(CN(C[C@H]2CC[C@H](C(=O)O)CC2)C(C)c2ccc(Cl)c(F)c2)ccc1OCCN1C(=O)CCC1=O` (stereo partly drawn) [Example 89, trans-4-[([1-(4-Chloro-3-fluoro-phenyl)-ethyl]-{4-[2-(2,5-dioxo-pyrrolidin-1-yl)-ethoxy]-3-ethyl-benzyl}-amino)-methyl]-cyclohexanecarboxylic acid], the IC50 worked out at 52 nM.
As for `CCc1cc(CN(C[C@H]2CC[C@H](C(=O)O)CC2)[C@H](C)c2ccc(Cl)c(F)c2)ccc1OCCN1C(=O)CCC1=O` [Example 90, trans-4-[([(R)-1-(4-Chloro-3-fluoro-phenyl)-ethyl]-{4-[2-(2,5-dioxo-pyrrolidin-1-yl)-ethoxy]-3-ethyl-benzyl}-amino)-methyl]-cyclohexanecarboxylic acid], the IC50 amounted to 494 nM.
Regarding `CCc1cc(CN(C[C@H]2CC[C@H](C(=O)O)CC2)[C@@H](C)c2ccc(Cl)c(F)c2)ccc1OCCN1C(=O)CCC1=O` [Example 91, trans-4-[([(S)-1-(4-Chloro-3-fluoro-phenyl)-ethyl]-{4-[2-(2,5-dioxo-pyrrolidin-1-yl)-ethoxy]-3-ethyl-benzyl}-amino)-methyl]-cyclohexanecarboxylic acid], the IC50 came to 121 nM.
The figure for `CC(c1ccc(Cl)c(F)c1)N(Cc1ccc(OCCN2C(=O)CCC2=O)c(F)c1)C[C@H]1CC[C@H](C(=O)O)CC1` (stereo partly drawn) [Example 92, trans-4-[([1-(4-Chloro-3-fluoro-phenyl)-ethyl]-{4-[2-(2,5-dioxo-pyrrolidin-1-yl)-ethoxy]-3-fluoro-benzyl}-amino)-methyl]-cyclohexanecarboxylic acid] is 220 nM; for `COc1cc(CN(C[C@H]2CC[C@H](C(=O)O)CC2)C2CCc3c2ccc(F)c3Cl)ccc1OCCN1C(=O)CCC1=O` (stereo partly drawn) [Example 93, trans-4-[((4-Chloro-5-fluoro-indan-1-yl)-{4-[2-(2,5-dioxo-pyrrolidin-1-yl)-ethoxy]-3-methoxy-benzyl}-amino)-methyl]-cyclohexanecarboxylic acid] it is 84 nM; for `COc1cc(CN(C[C@H]2CC[C@H](C(=O)O)CC2)C2CCc3cc(F)c(Cl)cc32)ccc1OCCN1C(=O)CCC1=O` (stereo partly drawn) [Example 94, trans-4-[((6-Chloro-5-fluoro-indan-1-yl)-{4-[2-(2,5-dioxo-pyrrolidin-1-yl)-ethoxy]-3-methoxy-benzyl}-amino)-methyl]-cyclohexanecarboxylic acid] it is 630 nM.
The figure for `CCc1cc(CN(C[C@H]2CC[C@H](C(=O)O)CC2)C2CCc3cc(F)c(Cl)cc32)ccc1OCCN1C(=O)CCC1=O` (stereo partly drawn) [Example 95, trans-4-[((6-Chloro-5-fluoro-indan-1-yl)-{4-[2-(2,5-dioxo-pyrrolidin-1-yl)-ethoxy]-3-ethyl-benzyl}-amino)-methyl]-cyclohexanecarboxylic acid] is 4040 nM.
Consider `CCc1cc(CN(C[C@H]2CC[C@H](C(=O)O)CC2)C2CCc3c2ccc(F)c3Cl)ccc1OCCN1C(=O)CCC1=O` (stereo partly drawn) [Example 96, trans-4-[((4-Chloro-5-fluoro-indan-1-yl)-{4-[2-(2,5-dioxo-pyrrolidin-1-yl)-ethoxy]-3-ethyl-benzyl}-amino)-methyl]-cyclohexanecarboxylic acid], for which the IC50 is 443 nM.
Take `O=C1CCC(=O)N1CCOc1ccc(CN(C[C@H]2CC[C@H](C(=O)O)CC2)C2CCc3cc(F)c(Cl)cc32)cc1F` (stereo partly drawn) [Example 97, trans-4-[((6-Chloro-5-fluoro-indan-1-yl)-{4-[2-(2,5-dioxo-pyrrolidin-1-yl)-ethoxy]-3-fluoro-benzyl}-amino)-methyl]-cyclohexanecarboxylic acid]: the IC50 came out at 4640 nM.
In the case of `COc1cc(CN(C[C@H]2CC[C@H](C(=O)O)CC2)C2CCc3cc(Cl)c(F)cc32)ccc1OCCN1C(=O)CCC1=O` (stereo partly drawn) [Example 98, trans-4-[((5-Chloro-6-fluoro-indan-1-yl)-{4-[2-(2,5-dioxo-pyrrolidin-1-yl)-ethoxy]-3-methoxy-benzyl}-amino)-methyl]-cyclohexanecarboxylic acid], the 50% inhibitory concentration (IC50) worked out at 155 nM.
On to `COc1cc(CN(C[C@@H]2CC[C@@H](C(=O)O)C2)[C@@H](C)c2ccc(Cl)cc2)ccc1OCCN1C(=O)CCC1=O` [Example 99, (1R,3R)-3-[([(S)-1-(4-Chloro-phenyl)-ethyl]-{4-[2-(2,5-dioxo-pyrrolidin-1-yl)-ethoxy]-3-methoxy-benzyl}-amino)-methyl]-cyclopentanecarboxylic acid], for which the IC50 is 223 nM.
Take `COc1cc(CN(C[C@H]2CC[C@H](C(=O)O)C2)[C@@H](C)c2ccc(Cl)cc2)ccc1OCCN1C(=O)CCC1=O` [Example 100, (1S,3S)-3-[([(S)-1-(4-Chloro-phenyl)-ethyl]-{4-[2-(2,5-dioxo-pyrrolidin-1-yl)-ethoxy]-3-methoxy-benzyl}-amino)-methyl]-cyclopentanecarboxylic acid]: the IC50 turned out to be 108 nM.
Under `COc1cc(CN(C[C@H]2CC[C@@H](C(=O)O)C2)[C@@H](C)c2ccc(Cl)cc2)ccc1OCCN1C(=O)CCC1=O` [Example 101, (1R,3S)-3-[([(S)-1-(4-Chloro-phenyl)-ethyl]-{4-[2-(2,5-dioxo-pyrrolidin-1-yl)-ethoxy]-3-methoxy-benzyl}-amino)-methyl]-cyclopentanecarboxylic acid] stands 1810 nM.
As to `COc1cc(CN(C[C@@H]2CC[C@H](C(=O)O)C2)[C@@H](C)c2ccc(Cl)cc2)ccc1OCCN1C(=O)CCC1=O` [Example 102, (1S,3R)-3-[([(S)-1-(4-Chloro-phenyl)-ethyl]-{4-[2-(2,5-dioxo-pyrrolidin-1-yl)-ethoxy]-3-methoxy-benzyl}-amino)-methyl]-cyclopentanecarboxylic acid], the IC50 came to 154 nM.
Take `COc1cc(CN(C[C@H]2CC[C@@H](C(=O)O)C2)[C@H](C)c2ccc3c(c2)CCO3)ccc1OCCN1C(=O)CCC1=O` [Example 103, (1R,3S)-3-[([(R)-1-(2,3-Dihydro-benzofuran-5-yl)-ethyl]-{4-[2-(2,5-dioxo-pyrrolidin-1-yl)-ethoxy]-3-methoxy-benzyl}-amino)-methyl]-cyclopentanecarboxylic acid]: the IC50 was 260 nM.
Under `COc1cc(CN(C[C@@H]2CC[C@@H](C(=O)O)C2)[C@H](C)c2ccc3c(c2)CCO3)ccc1OCCN1C(=O)CCC1=O` [Example 104, (1R,3R)-3-[([(R)-1-(2,3-Dihydro-benzofuran-5-yl)-ethyl]-{4-[2-(2,5-dioxo-pyrrolidin-1-yl)-ethoxy]-3-methoxy-benzyl}-amino)-methyl]-cyclopentanecarboxylic acid] stands 15 nM.
On to `COc1cc(CN(C[C@@H]2CC[C@@H](C(=O)O)C2)[C@@H](C)c2ccc3c(c2)CCO3)ccc1OCCN1C(=O)CCC1=O` [Example 105, (1R,3R)-3-[([(S)-1-(2,3-Dihydro-benzofuran-5-yl)-ethyl]-{4-[2-(2,5-dioxo-pyrrolidin-1-yl)-ethoxy]-3-methoxy-benzyl}-amino)-methyl]-cyclopentanecarboxylic acid], for which the half-inhibitory concentration (IC50) came to 53 nM.
Under `COc1cc(CN(C[C@@H]2CC[C@H](C(=O)O)C2)[C@@H](C)c2ccc3c(c2)CCO3)ccc1OCCN1C(=O)CCC1=O` [Example 106, (1S,3R)-3-[([(S)-1-(2,3-Dihydro-benzofuran-5-yl)-ethyl]-{4-[2-(2,5-dioxo-pyrrolidin-1-yl)-ethoxy]-3-methoxy-benzyl}-amino)-methyl]-cyclopentanecarboxylic acid] stands 144 nM.
On to `COc1cc(CN(C[C@H]2CC[C@@H](C(=O)O)C2)[C@@H](C)c2ccc3c(c2)CCO3)ccc1OCCN1C(=O)CCC1=O` [Example 107, (1R,3S)-3-[([(S)-1-(2,3-Dihydro-benzofuran-5-yl)-ethyl]-{4-[2-(2,5-dioxo-pyrrolidin-1-yl)-ethoxy]-3-methoxy-benzyl}-amino)-methyl]-cyclopentanecarboxylic acid], for which the IC50 stood at 5130 nM.
Turning to `COc1cc(CN(C[C@@H]2CC[C@H](C(=O)O)C2)[C@H](C)c2ccc3c(c2)CCO3)ccc1OCCN1C(=O)CCC1=O` [Example 108, (1S,3R)-3-[([(R)-1-(2,3-Dihydro-benzofuran-5-yl)-ethyl]-{4-[2-(2,5-dioxo-pyrrolidin-1-yl)-ethoxy]-3-methoxy-benzyl}-amino)-methyl]-cyclopentanecarboxylic acid], the half-maximal inhibitory concentration (IC50) was found to be 190 nM.
The figure for `COc1cc(CN(C[C@H]2CC[C@H](C(=O)O)C2)[C@H](C)c2ccc3c(c2)CCO3)ccc1OCCN1C(=O)CCC1=O` [Example 109, (1S,3S)-3-[([(R)-1-(2,3-Dihydro-benzofuran-5-yl)-ethyl]-{4-[2-(2,5-dioxo-pyrrolidin-1-yl)-ethoxy]-3-methoxy-benzyl}-amino)-methyl]-cyclopentanecarboxylic acid] is 73 nM; for `COc1cc(CN(C[C@H]2CC[C@H](C(=O)O)C2)[C@@H](C)c2ccc3c(c2)CCO3)ccc1OCCN1C(=O)CCC1=O` [Example 110, (1S,3S)-3-[([(S)-1-(2,3-Dihydro-benzofuran-5-yl)-ethyl]-{4-[2-(2,5-dioxo-pyrrolidin-1-yl)-ethoxy]-3-methoxy-benzyl}-amino)-methyl]-cyclopentanecarboxylic acid] it is 525 nM.
The figure for `CCOC(=O)[C@@H]1C[C@H]1CN(Cc1ccc(OCCN2C(=O)CCC2=O)c(OC)c1)C(C)c1ccc2c(c1)CCO2` (stereo partly drawn) [Example 111, (1R,2R)-2-[([1-(2,3-Dihydro-benzofuran-5-yl)-ethyl]-{4-[2-(2,5-dioxo-pyrrolidin-1-yl)-ethoxy]-3-methoxy-benzyl}-amino)-methyl]-cyclopropanecarboxylic acid ethyl ester] is 646 nM.
